Values joined by “and” are separate entries in the source; they are usually repeats but may differ in a detail not shown here. Equal entries are not always repeated.
target: T1, Tyrosine-protein phosphatase non-receptor type 1 (Homo sapiens, UniProt P18031); assay: Non-competitive reversible inhibition of human PTP1B
T1 sequence (P18031 whole entry): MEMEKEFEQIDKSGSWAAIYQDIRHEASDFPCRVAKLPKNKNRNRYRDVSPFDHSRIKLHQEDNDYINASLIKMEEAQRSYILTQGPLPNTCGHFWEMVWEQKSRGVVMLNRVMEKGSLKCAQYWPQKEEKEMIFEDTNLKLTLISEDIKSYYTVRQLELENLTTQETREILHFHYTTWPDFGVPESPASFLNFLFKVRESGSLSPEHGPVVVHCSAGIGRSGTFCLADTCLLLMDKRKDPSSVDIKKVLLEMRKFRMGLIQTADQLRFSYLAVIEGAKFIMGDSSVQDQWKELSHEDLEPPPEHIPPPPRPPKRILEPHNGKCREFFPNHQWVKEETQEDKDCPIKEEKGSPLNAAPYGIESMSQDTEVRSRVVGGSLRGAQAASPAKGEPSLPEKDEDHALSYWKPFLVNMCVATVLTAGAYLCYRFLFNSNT

SMILES	IC50
CC1(C)Cc2c(nn(-c3cccc(CO)c3)c(=N)c2C#N)CO1	2.4 µM
CC1(C)Cc2c(nn(-c3ccc(CCO)cc3)c(=N)c2C#N)CO1	2.9 µM
CCc1cccc(-n2nc3c(c(C#N)c2=N)CC(C)(C)OC3)c1	8.2 µM
CC1(C)Cc2c(nn(-c3cccc(Oc4ccccc4)c3)c(=N)c2C#N)CO1	3.9 µM
CCc1ccc(-n2nc3c(c(C#N)c2=N)CC(C)(C)OC3)cc1	2.8 µM
CC1(C)Cc2c(nn(-c3cccc(C(F)(F)F)c3)c(=N)c2C#N)CO1	2.8 µM
CCCCc1ccc(-n2nc3c(c(C#N)c2=N)CC(C)(C)OC3)cc1	7 µM
CC(=O)Nc1ccc(-n2nc3c(c(C#N)c2=N)CC(C)(C)OC3)cc1	6.1 µM

The remaining lines, values ahead:

IC50	SMILES
2.9 µM	CC1(C)Cc2c(nn(-c3ccccc3N3CCOCC3)c(=N)c2C#N)CO1
2.4 µM	CC1(C)Cc2c(nn(-c3ccccc3F)c(=N)c2C#N)CO1
2 µM	N#Cc1c2c(nn(-c3ccc(F)cc3)c1=N)CSCC2
6.19 µM and 6.2 µM	COc1ccccc1-n1nc2c(c(C#N)c1=N)CC(C)(C)OC2
2 µM	CC(C)c1ccccc1-n1nc2c(c(C#N)c1=N)CCSC2
8.2 µM	CC(C)c1cccc(-n2nc3c(c(C#N)c2=N)CC(C)(C)OC3)c1
3.9 µM	CC1(C)Cc2c(nn(-c3ccccc3C(F)(F)F)c(=N)c2C#N)CO1

From BindingDB's records for doi:10.1007/s00044-013-0797-8 (n/a, 2013)
